Measured values reported in article PMC7822874, “Chemoprotective antimalarials identified through quantitative high-throughput screening of Plasmodium blood and liver stage parasites” (Scientific Reports, 2021).

What was measured:
[1] = system: Plasmodium falciparum Dd2 asexual blood stage parasites; experiment: microbe, parasite or virus in culture; design: species or system Plasmodium falciparum Dd2 in human erythrocytes; single determination (one 11-point concentration-response curve); settings: Plasmodium falciparum, DD2, Erythrocyte, 72 h; read-out: AC50
in vitro [2] = settings: human
in vitro [3] = settings: human, n = 1
[4] = HepG2-A16-CD81EGFP cells, uninfected

Structure (SMILES) | AC50 [1] [µM] | CC50 at 48 h (in vitro [3]; HepG2 cells) [µM] | also measured
O=C(NCCNc1ccnc2cc(Cl)ccc12)c1ccccc1F [MLS001163130-01] | 1.68 | 27.3 | viability at 48 h, 1 µM (in vitro [2]; [4]): 106%; viability at 48 h, 3 µM (in vitro [2]; [4]): 86%
CCNC(S)=N/N=C/c1sc(N2CCCCC2)nc1-c1cccs1 [MLS000335256-01] | 0.668 | 15.3 | viability at 66 h (in vitro [2]; [4]): 103%
CCCC(=O)NC(c1ccccc1)c1ccc2cccnc2c1O (stereo not shown) [MLS001204078-01] | 6.68 | 12.2 | 
COc1ccccc1N1CCN(C[C@@H]2C=C(C)[C@H](Cc3nnc(-c4cncn4C)o3)C[C@H]2C(C)C)CC1 [NCGC00392622-01] | 10.6 | 24.3 | 
CCN1CCN(c2ccc(Nc3ccnc4ccccc34)cc2)CC1 [MLS001360577-01] | 1.06 | 17.2 | viability at 48 h, 1 µM (in vitro [2]; [4]): 95%; viability at 48 h, 3 µM (in vitro [2]; [4]): 91%
O=C1C(Nc2ccccc2)=C/C(=N\S(=O)(=O)c2cccs2)c2ccccc21 [MLS000374486-01] | 0.335 | 12.2 | viability at 48 h, 1 µM (in vitro [2]; [4]): 101%; viability at 48 h, 3 µM (in vitro [2]; [4]): 76%
Nc1nc(-c2ccccn2)nc(N)c1Cc1ccc(Cl)cc1Cl [MLS000691892-01] | 7.5 | 13.7 | 
O=C1NC2(CCCN(Cc3ccccn3)C2)COc2ccccc21 (stereo not shown) [NCGC00477540-01] | 4.85 |  | CC50 at 48 h (in vitro [3]; hepg2): 3.14 µM
FC(F)(F)c1cccc(Nc2nc3nonc3nc2Nc2ccc(Cl)cc2)c1 [NCGC00100377-01] | 0.75 | 3.85 | 
CCCCOCc1cc(CN2CCN(c3cccc(Cl)c3)CC2)c(O)c2ncccc12 [NCGC00114972-01] | 6.68 | 17.2 | 
Cc1ccc(NCC(=O)Nc2cccc(F)c2)cc1S(=O)(=O)N1CCCCCC1 [MLS001128515-01] |  | 27.3 | viability at 48 h, 1 µM (in vitro [2]; [4]): 93%; viability at 48 h, 3 µM (in vitro [2]; [4]): 83%
c1ccc(-c2cccc(-c3ccccn3)n2)nc1 [MLS000048666-01] |  |  | viability at 66 h (in vitro [2]): 17.7%; CC50 at 48 h (in vitro [3]; hepg2): 15.3 µM
C/C(=N\NC(=O)c1ccccc1OCc1ccc(F)cc1)c1ccccn1 [MLS002162875-01] | 4.73 | 17.2 | viability at 48 h, 1 µM (in vitro [2]; [4]): 105%; viability at 48 h, 3 µM (in vitro [2]; [4]): 79%
CCCC(=O)NC(c1ccc(C(C)C)cc1)c1ccc2cccnc2c1O (stereo not shown) [MLS001211083-01] | 13.3 | 12.2 | 
Cc1sc(NC(=O)c2ccco2)c(C(c2cccnc2)N2CCC(C)CC2)c1C (stereo not shown) [MLS000536186-01] | 5.31 | 8.62 | 
Oc1ccc(-c2nnc(S)n2-c2ccc3c(c2)OCCO3)c(O)c1 [MLS000332001-01] | 2.66 | 17.2 | viability at 48 h, 1 µM (in vitro [2]; [4]): 98%; viability at 48 h, 3 µM (in vitro [2]; [4]): 95%
CC(C)OCc1cc(CN2CCN(c3cccc(C(F)(F)F)c3)CC2)c(O)c2ncccc12 [NCGC00114970-01] | 6.68 | 10.9 | 
CCCCC(=O)NC(c1ccc(C(C)C)cc1)c1ccc2cccnc2c1O (stereo not shown) [MLS001204647-01] | 7.5 | 15.3 | 
O=C(Oc1c(CN2CCOCC2)cc(Cl)c2cccnc12)c1ccccc1Br [MLS000770987-01] | 7.5 | 19.3 | 
CC1CCN(S(=O)(=O)c2ccc3c(c2)C(=NO)c2cc(S(=O)(=O)N4CCC(C)CC4)ccc2-3)CC1 [MLS000551434-01] | 1.68 |  | CC50 at 48 h (in vitro [3]; hepg2): 21.7 µM
CCOC(=O)C1CCN(C(=O)c2c(C)oc3c2C(=O)c2ccccc2C3=O)CC1 [MLS000724686-01] | 0.531 | 15.3 | viability at 66 h (in vitro [2]; [4]): 103%
CCOC(=O)c1c(C)[nH]c2c1-c1ccccc1C(=O)C2=O [MLS000701140-01] | 2.37 | 10.9 | 
COc1cc(NC2CCCCC2O)c2nc(-c3ccc(Cl)cc3)ccc2c1 (stereo not shown) [MLS000766166-01] | 5.31 | 13.7 | viability at 48 h, 1 µM (in vitro [2]; [4]): 111%; viability at 48 h, 3 µM (in vitro [2]; [4]): 101%
CN(C)CCCn1cnc2c(c1=N)C(c1ccccc1)c1ccc3ccccc3c1O2 (stereo not shown) [MLS001216375-01] | 3.76 | 30.6 | viability at 48 h, 1 µM (in vitro [2]; [4]): 111%; viability at 48 h, 3 µM (in vitro [2]; [4]): 110%
CCOC(=O)c1ccc(Nc2nc3nonc3nc2Nc2cccc(C)c2C)cc1 [NCGC00117662-01] | 8.41 | 10.9 | 
c1ccc(-c2nc(NCc3ccco3)c3ccccc3n2)nc1 [MLS000040057-01] | 5.96 | 27.3 | 

Structure (SMILES) | AC50 [1] [µM] | CC50 at 48 h (in vitro [3]; HepG2 cells) [µM] | also measured
c1ccc(Oc2nc(-c3ccccn3)nc3ccccc23)cc1 [MLS000769533-01] | 7.5 | 9.68 | 
O=C(/C(=C/c1ccc(Cl)cc1)c1nc2ccccc2[nH]1)c1cccs1 [MLS000565128-01] | 2.11 | 24.3 | 
Cc1ccc(Nc2nc3nonc3nc2Nc2cccc(C(F)(F)F)c2)cc1Cl [NCGC00117632-01] | 2.11 | 4.32 | 
Oc1cc(Nc2ccc(N3CCCCC3)cc2)cc2cccnc12 [NCGC00183804-01] | 0.841 | 17.2 | viability at 48 h, 1 µM (in vitro [2]; [4]): 105%; viability at 48 h, 3 µM (in vitro [2]; [4]): 94%
O=C(NNc1ccnc2cc(Cl)ccc12)C1CCCCC1 [MLS000770801-01] | 7.5 | 12.2 | 
Nc1nc(-c2ccccn2)nc(N)c1Cc1ccccc1F [MLS000691905-01] | 13.3 | 27.3 | 
COc1ccc(/C=N/Nc2cc(C)nc(-n3nc(C)cc3C)n2)c(OC)c1 [MLS000589396-01] | 5.31 | 24.3 | 
CCOC(=O)c1cnc(-n2nc(C)cc2C)nc1NNc1nc(-c2ccccc2)cc(-c2ccccc2)n1 [MLS000580862-01] | 2.11 | 19.3 | 
CCN(CC)[S+](=O)([O-])c1ccc(NC(=O)CCc2c(C)nc3cc(-c4ccc(Cl)cc4)nn3c2C)cc1 [NCGC00110055-01] | 4.73 | 27.3 | 
O=C1C=CC(Br)=CC1=CNNC(=O)c1ccncc1 [MLS000778139-01] | 9.44 | 12.2 | 
CCCOC(=O)c1[nH]c2c(c1C)C(=O)CC(c1cc(OC)c(OC)c(OC)c1)C2 (stereo not shown) [MLS000116504-01] | 6.68 | 21.7 | 
Cc1cc(O)c(-c2cc(C(=O)Nc3ccc(S(=O)(=O)N4CCOCC4)cc3)[nH]n2)cc1C [MLS000042703-01] | 1.68 | 27.3 | 
Cc1cc(Nc2sc(C(=O)c3ccc(F)cc3)c(N)c2C(=O)Nc2ccc(F)cc2)ccc1Cl [NCGC00138324-01] | 0.75 | 2.73 | 
COc1ccccc1Nc1c2c(nc3ccc(NC(=O)/C=C/c4cccc(OC)c4OC)cc13)CCCC2 [NCGC00104013-01] | 5.96 | 30.6 | 
c1csc(-c2ccnc(N[C@H]3CO[C@H]4[C@@H]3OC[C@@H]4NCC3CCCCC3)n2)c1 [NCGC00395181-01] | 12.2 | 49.8 | 
COc1ccc(C2C=C(c3ccc(F)cc3)Nc3nc(-c4ccc(Cl)cc4)nn32)cc1 (stereo not shown) [NCGC00100513-01] | 0.75 | 27.3 | 
c1ccc(CCNc2nc(-c3ccccn3)cs2)cc1 [MLS000708031-01] | 7.5 | 21.7 | 
CCOCc1cc(CN2CCN(c3ccccc3OC)CC2)c(O)c2ncccc12 [NCGC00114940-01] | 5.96 | 9.68 | 
C[n+]1c2ccccc2nc2ccc(NCCO)cc21.[O-][Cl+3]([O-])([O-])[O-] | 1.19 |  | CC50 at 48 h (in vitro [3]; hepg2): 13.7 µM
Cc1nn(-c2ccc(C(C)C)cc2)c(C)c1[C@@H]1C=C[C@@H](NCc2ccccc2)C1 [NCGC00392636-01] | 21.7 | 44.4 | 
COc1cnc(-c2ccccn2)nc1Sc1ccc(Cl)cc1 [MLS000325700-01] | 5.96 | 24.3 | 
COc1ccccc1CNC[C@@H]1C=C(C)[C@H](Cc2nc3cccc(C)c3[nH]2)C[C@H]1C(C)C [NCGC00392078-01] | 9.68 | 44.4 | 
COc1cnc(-c2ccccn2)nc1NC(C)C [MLS000692222-01] | 5.31 | 15.3 | 
COc1cccc(C(NC(C)=O)c2ccc3cccnc3c2O)c1 (stereo not shown) [MLS001204096-01] | 4.22 | 12.2 | 
CN(C)CC(O)COc1ccc(C(C)(C)c2ccc(OCC(O)CN(C)C)cc2)cc1 (stereo not shown) [MLS001073934-01] | 8.41 | 21.7 | 
